20 molecules from patent US9353107B2 (Aurigene Discovery Technologies Limited, priority 2012, dated 2016) can be followed below.

Structures can show the parent of a compound that is named as a salt.

The assay addresses T1, recombinant human ALK enzyme (ALK WT) (Homo sapiens, UniProt Q9UM73).
T1 construct: purchased Carna Biosciences 08-518
The experiment in a line: ALK WT cell free enzymatic assay (TR-FRET). The format is biochemical. Conditions: 1 μM ATP; for IC50: 10 point dose response; for inhibition at 0.1 µM: compound at 100 nM; for inhibition at 0.1 µM / inhibition at 1 µM: 30 min pre-incubation; for inhibition at 1 µM: compound at 1 μM. The protocol: ALK Wild Type (WT) The ALK WT cell free assay was set up to evaluate the effects of these compounds as inhibitors of ALK enzyme. The enzymatic assay was standardized using recombinant human ALK enzyme (Cat#08-518) from Carna Biosciences using Ultra Light Poly GT (Cat# TRF 0100D) from Perkin Elmer as a substrate. TR-FRET (Time resolved fluorescence resonance energy transfer) detection technology was used for the read out. The final assay conditions were 50 mM HEPES pH 7.1, 10 mM MgCl2, 2 mM MnCl2, 0.01% BSA, 2.5 mM DTT, 0.1 mM Na3 VO4, 40 nM Ultra Light Poly GT, 2.5 ng ALK WT enzyme, 1 μM ATP and 125 nM Lance Eu-W1024 labeled anti phospho tyrosine antibody (Cat# AD0203, Perkin Elmer) in 384 well format. The assay reaction time with the substrate was 30 minutes after which the antibody detection mix is added. The TR-FRET signal (Excitation at 340 nm, Emission at 615 nm and 665 nm) was read with 50 μs delay time on Victor^3 V fluorimeter. The data is calculated using the ratio of reading at 665 nM to 615 nM. The final concentration of DMSO was 1% in the assay. Compounds were screened at 100 nM and 1 μM concentrations with pre-incubation of the enzymes with compound for 30 minutes. Each individual IC50 was determined using 10 point dose response curve generated by GraphPad Prism software Version 4 (San Diego, Calif., USA) using non linear regression curve fit for sigmoidal dose response (variable slope). Percentage inhibition at concentrations of 100 nM and 1.0 μM are given in table along with the IC50 (nM) details for selected examples.
A general note: TR-FRET usually uses a lanthanide donor and a delayed reading to cut background.

T1 sequence (Q9UM73 1058-1620 limits assumed): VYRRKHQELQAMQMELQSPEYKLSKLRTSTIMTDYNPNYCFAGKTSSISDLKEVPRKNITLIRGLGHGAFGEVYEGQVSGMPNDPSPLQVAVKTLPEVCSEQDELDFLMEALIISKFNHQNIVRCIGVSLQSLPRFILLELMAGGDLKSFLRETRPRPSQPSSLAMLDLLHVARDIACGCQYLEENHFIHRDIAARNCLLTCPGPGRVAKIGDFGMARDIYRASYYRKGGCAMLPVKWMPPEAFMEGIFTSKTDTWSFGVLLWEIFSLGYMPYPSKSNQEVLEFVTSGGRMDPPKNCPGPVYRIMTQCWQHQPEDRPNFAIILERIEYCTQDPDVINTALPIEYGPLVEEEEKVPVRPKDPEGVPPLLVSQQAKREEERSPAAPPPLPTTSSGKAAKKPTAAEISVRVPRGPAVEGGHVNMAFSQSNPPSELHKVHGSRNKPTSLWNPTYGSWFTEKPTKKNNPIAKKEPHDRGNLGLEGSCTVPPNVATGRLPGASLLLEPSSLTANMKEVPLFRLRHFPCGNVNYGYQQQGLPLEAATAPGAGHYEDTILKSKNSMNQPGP

For orientation: IC50 means the concentration that inhibits the measured activity by half. As a reminder, the inhibition is the percentage by which the read-out fell short of the control. For the molecule `Cc1nn(Cc2cc(F)ccc2F)c(C)c1-c1c[nH]c2ncc(-c3ccc(N4CCNCC4)cc3)cc12` [Example 42, 3-(1-(2,5-difluorobenzyl)-3,5-dimethyl-1H-pyrazol-4-yl)-5-(4-(piperazin-1-yl)phenyl)-1H-pyrrolo[2,3-b]pyridine hydrochloride], the half-inhibitory concentration (IC50) was under 50 nM, the inhibition at 0.1 µM came out at 92% and the inhibition at 1 µM was 100%.

Regarding `Cc1nn(Cc2cc(F)cc(F)c2)c(C)c1-c1c[nH]c2ncc(-c3ccc(N4CCNCC4)cc3)cc12` [Example 43, 3-(1-(3,5-difluorobenzyl)-3,5-dimethyl-1H-pyrazol-4-yl)-5-(4-(piperazin-1-yl)phenyl)-1H-pyrrolo[2,3-b]pyridine hydrochloride], the IC50 was under 50 nM, the inhibition at 0.1 µM is 92% and the inhibition at 1 µM turned out to be 99%.

Take `Cc1c(-c2c[nH]c3ncc(-c4ccc(N5CCNCC5)cc4)cc23)cnn1Cc1cccc(F)c1` [Example 44, 3-(1-(3-fluorobenzyl)-5-methyl-1H-pyrazol-4-yl)-5-(4-(piperazin-1-yl)phenyl)-1H-pyrrolo[2,3-b]pyridine hydrochloride]: the IC50 is under 50 nM, the inhibition at 0.1 µM was 95% and the inhibition at 1 µM worked out at 100%.

Consider `Cc1nn(Cc2cccc(F)c2)c(C)c1-c1c[nH]c2ncc(-c3ccc(N4CCOCC4)cc3)cc12` [Example 45, 4-(4-(3-(1-(3-fluorobenzyl)-3,5-dimethyl-1H-pyrazol-4-yl)-1H-pyrrolo[2,3-b]pyridin-5-yl)phenyl) morpholine], for which the IC50 was 50 to 250 nM, the inhibition at 0.1 µM stood at 51% and the inhibition at 1 µM turned out to be 80%.

`COc1cccc(Cn2nc(C)c(-c3c[nH]c4ncc(-c5ccc(N6CCNCC6)cc5)cc34)c2C)c1` [Example 46, 3-(1-(3-methoxybenzyl)-3,5-dimethyl-1H-pyrazol-4-yl)-5-(4-(piperazin-1-yl)phenyl)-1H-pyrrolo[2,3-b]pyridine hydrochloride]: the IC50 is under 50 nM, the inhibition at 0.1 µM was 80% and the inhibition at 1 µM stood at 98%.

For `Cc1nn(Cc2cccc(Cl)c2)c(C)c1-c1c[nH]c2ncc(-c3ccc(N4CCNCC4)cc3)cc12` [Example 47, 3-(1-(3-chlorobenzyl)-3,5-dimethyl-1H-pyrazol-4-yl)-5-(4-(piperazin-1-yl)phenyl)-1H-pyrrolo[2,3-b]pyridine hydrochloride], the IC50 was under 50 nM, the inhibition at 0.1 µM worked out at 90% and the inhibition at 1 µM was found to be 100%.

Take `Cc1nn(Cc2cccc(C#N)c2)c(C)c1-c1c[nH]c2ncc(-c3ccc(N4CCNCC4)cc3)cc12` [Example 48, 3-((3,5-dimethyl-4-(5-(4-(piperazin-1-yl)phenyl)-1H-pyrrolo[2,3-b]pyridin-3-yl)-1H-pyrazol-1-yl)methyl)benzonitrile hydrochloride]: the IC50 lay within 50 to 250 nM, the inhibition at 0.1 µM is 52% and the inhibition at 1 µM was found to be 83%.

For the molecule `CC(=O)N1CCN(c2ccc(-c3cnc4[nH]cc(-c5c(C)nn(Cc6cccc(F)c6)c5C)c4c3)cc2)CC1` [Example 49, 1-(4-(4-(3-(1-(3-fluorobenzyl)-3,5-dimethyl-1H-pyrazol-4-yl)-1H-pyrrolo[2,3-b]pyridin-5-yl)phenyl)piperazin-1-yl)ethanone], the IC50 was under 50 nM, the inhibition at 0.1 µM was 70% and the inhibition at 1 µM was 91%.

`CC(=O)Nc1cccc(Cn2nc(C)c(-c3c[nH]c4ncc(-c5ccc(N6CCNCC6)cc5)cc34)c2C)c1` [Example 50, N-(3-((3,5-dimethyl-4-(5-(4-(piperazin-1-yl)phenyl)-1H-pyrrolo[2,3-b]pyridin-3-yl)-1H-pyrazol-1-yl)methyl)phenyl)acetamide]: the IC50 is under 50 nM, the inhibition at 0.1 µM is 60% and the inhibition at 1 µM was 89%.

For the molecule `Cc1cccc(Cn2nc(C)c(-c3c[nH]c4ncc(-c5ccc(N6CCNCC6)cc5)cc34)c2C)c1` [Example 51, 3-(3,5-dimethyl-1-(3-methylbenzyl)-1H-pyrazol-4-yl)-5-(4-(piperazin-1-yl)phenyl)-1H-pyrrolo[2,3-b]pyridine hydrochloride], the half-maximal inhibitory concentration (IC50) is under 50 nM, the inhibition at 0.1 µM stood at 84% and the inhibition at 1 µM was found to be 100%.

Turning to `Cc1nn(Cc2cccc(OC(F)(F)F)c2)c(C)c1-c1c[nH]c2ncc(-c3ccc(N4CCNCC4)cc3)cc12` [Example 52, 3-(3,5-dimethyl-1-(3-(trifluoromethoxy)benzyl)-1H-pyrazol-4-yl)-5-(4-(piperazin-1-yl)phenyl)-1H-pyrrolo[2,3-b]pyridine hydrochloride], the IC50 was over 250 nM, the inhibition at 0.1 µM is 12% and the inhibition at 1 µM is 80%.

Take `CCOc1cccc(Cn2nc(C)c(-c3c[nH]c4ncc(-c5ccc(N6CCNCC6)cc5)cc34)c2C)c1` [Example 54, 3-(1-(3-ethoxybenzyl)-3,5-dimethyl-1H-pyrazol-4-yl)-5-(4-(piperazin-1-yl)phenyl)-1H-pyrrolo[2,3-b]pyridine hydrochloride]: the inhibition at 0.1 µM is 0% and the inhibition at 1 µM was 25%.

With `Cc1nn(Cc2cccc(F)c2)c(C)c1-c1c[nH]c2nc(C3CC3)c(-c3ccc(N4CCNCC4)cc3)cc12` [Example 55, 6-cyclopropyl-3-(1-(3-fluorobenzyl)-3,5-dimethyl-1H-pyrazol-4-yl)-5-(4-(piperazin-1-yl)phenyl)-1H-pyrrolo[2,3-b]pyridine hydrochloride], the inhibition at 0.1 µM was 2% and the inhibition at 1 µM stood at 43%.

For the molecule `Cc1nn(Cc2cccc(F)c2)c(C)c1-c1c[nH]c2ncc(-c3ccc(N4CCN(C)CC4)cc3)cc12` [Example 56, 3-(1-(3-fluorobenzyl)-3,5-dimethyl-1H-pyrazol-4-yl)-5-(4-(4-methylpiperazin-1-yl)phenyl)-1H pyrrolo[2,3-b]pyridine], the IC50 was under 50 nM, the inhibition at 0.1 µM worked out at 91% and the inhibition at 1 µM is 100%.

Turning to `Cc1nn(Cc2cccc(F)c2)c(C)c1-c1c[nH]c2ncc(-c3ccc(N4CCN(CCN(C)C)CC4)cc3)cc12` [Example 57, 2-(4-(4-(3-(1-(3-fluorobenzyl)-3,5-dimethyl-1H-pyrazol-4-yl)-1H-pyrrolo[2,3-b]pyridin-5-yl)phenyl)piperazin-1-yl)-N,N-dimethylethanamine], the IC50 is under 50 nM, the inhibition at 0.1 µM is 93% and the inhibition at 1 µM came out at 100%.

For `Cc1nn(Cc2cccc(F)c2)c(C)c1-c1c[nH]c2ncc(-c3ccc(N4CCNCC4)c(NS(C)(=O)=O)c3)cc12` [Example 58, N-(5-(3-(1-(3-fluorobenzyl)-3,5-dimethyl-1H-pyrazol-4-yl)-1H-pyrrolo[2,3-b]pyridin-5-yl)-2-(piperazin-1-yl)phenyl)methanesulfonamide hydrochloride], the IC50 was under 50 nM, the inhibition at 0.1 µM amounted to 92% and the inhibition at 1 µM worked out at 100%.

In the case of `Cc1nn(Cc2cccc(F)c2)c(C)c1-c1c[nH]c2ncc(-c3ccc(N4CCOCC4)c(NS(C)(=O)=O)c3)cc12` [Example 59, N-(5-(3-(1-(3-fluorobenzyl)-3,5-dimethyl-1H-pyrazol-4-yl)-1H-pyrrolo[2,3-b]pyridin-5-yl)-2-morpholinophenyl)methanesulfonamide], the IC50 lay within 50 to 250 nM, the inhibition at 0.1 µM was found to be 49% and the inhibition at 1 µM came to 77%.

In the case of `Cc1nn(Cc2cc(F)cc(F)c2)c(C)c1-c1c[nH]c2nc(C3CC3)c(-c3ccc(N4CCNCC4)cc3)cc12` [Example 60, 6-cyclopropyl-3-(1-(3,5-difluorobenzyl)-3,5-dimethyl-1H-pyrazol-4-yl)-5-(4-(piperazin-1-yl)phenyl)-1H-pyrrolo[2,3-b]pyridine hydrochloride], the inhibition at 0.1 µM turned out to be 9% and the inhibition at 1 µM came to 10%.

Take `COc1cc(N2CCNCC2)ccc1-c1cnc2[nH]cc(-c3c(C)nn(Cc4cccc(F)c4)c3C)c2c1` [Example 61, 3-(1-(3-fluorobenzyl)-3,5-dimethyl-1H-pyrazol-4-yl)-5-(2-methoxy-4-(piperazin-1-yl)phenyl)-1H-pyrrolo[2,3-b]pyridine hydrochloride]: the IC50 was under 50 nM, the inhibition at 0.1 µM came out at 73% and the inhibition at 1 µM was 96%.

On to `COc1cc(-c2cnc3[nH]cc(-c4c(C)nn(Cc5cccc(F)c5)c4C)c3c2)ccc1N1CCNCC1` [Example 62, 3-(1-(3-fluorobenzyl)-3,5-dimethyl-1H-pyrazol-4-yl)-5-(3-methoxy-4-(piperazin-1-yl)phenyl)-1H-pyrrolo[2,3-b]pyridine hydrochloride], for which the IC50 was under 50 nM, the inhibition at 0.1 µM worked out at 87% and the inhibition at 1 µM worked out at 100%.
